Assay results published in patent US11464750B2, “Anticancer agent and use thereof” (priority 2017, dated 2022).

Tests used:
Format in all cases: cell-based, human
PTEN = experiment: Western blotting, PTEN, BALL-1 cells; details: 0.5 μM
Experimental: The effect of 3EZ,20Ac-ingenol treatment on PTEN, p-PTEN, and p-Akt of BALL-1 cells was examined. First, BALL-1 cells were cultured for 3, 6, 12, 24, and 48 hours in the presence of 3EZ,20Ac-ingenol at a final concentration of 0.5 μM, and by Western blotting using an anti-PTEN antibody (Santa Cruz), an anti-p-PTEN (Ser^380/Thr^382/383) antibody (Santa Cruz), and an anti-p-Akt (Ser^473) antibody (Cell Signaling Technology), abundances of PTEN, p-PTEN, and p-Akt in the entire cell fraction were analyzed. In addition, cells cultured in the absence of 3EZ,20Ac-ingenol were used as controls.
Subsequently, siRNA against PTEN (“ON-TARGET Plus Human PTEN (5728) siRNA-SMARTpool,” GE Dharmacon) was introduced into BALL-1 cells at a final concentration of 50 nM and incubated for 48 hours. Subsequently, a cell medium was replaced with a new medium and cultured for 12, 24, and 48 hours in the presence or absence of 3EZ,20Ac-ingenol at a final concentration of 0.5 μM, and by Western blotting using an anti-PTEN antibody (Santa Cruz) and an anti-p-Akt (Ser^473) antibody (Cell Signaling Technology), abundances of PTEN protein and p-Akt were analyzed.

BALL-1 cells [1] = experiment: Cell cycle analysis by flow cytometry; details: 0.5 μM
Experimental: Specifically, BALL-1 cells were treated with 3EZ,20Ac-ingenol at a final concentration of 0.5 μM for 6, 12, 24, and 48 hours, and then a phase of a cell cycle was analyzed using flow cytometry. In addition, cells that were not treated with 3EZ,20Ac-ingenol were used as controls.

BALL-1 cells [2] = experiment: MTT assay, BALL-1 cells with siRNA against ATR; details: 0.5 μM, 48 hours
Experimental: An effect of ATR activity on cell proliferation inhibition was examined. In the same manner as in Experimental Example 9, siRNA against ATR was introduced into BALL-1 cells, and the cells were incubated for 48 hours. Subsequently, a cell medium was replaced with a medium containing 3EZ,20Ac-ingenol at a final concentration of 0.5 μM, and culturing was performed for 48 hours.
For comparison, BALL-1 cells cultured for 48 hours in a medium containing 3EZ,20Ac-ingenol at a final concentration of 0.5 μM without introduction of siRNA were used. In addition, as controls, cells into which control siRNA (“ON-TARGET Plus Nontargeting pool,” GE Dharmacon) was introduced and which were then cultured in the absence of 3EZ,20Ac-ingenol were used.

TKG0377 cells = experiment: Cell Death Detection ELISA, TKG0377; details: 0.5 μM, 72 hours
Experimental: The induction of apoptosis by 3EZ,20Ac-ingenol treatment was examined by detecting histone-binding DNA fragmentation in the cytoplasm using a Cell Death Detection ELISA kit (Roche Applied Science).
Specifically, BALL-1 cells, TKG0210 cells, and TKG0377 cells were inserted into tubes at 5×10^4 cells/well/200 μL, and incubated for 6, 12, 24, 48, and 72 hours in the presence of 3EZ,20Ac-ingenol at a final concentration of 0.5 μM. Subsequently, the respective cells were lysed in a lysis buffer. Subsequently, the supernatant of cell debris of the respective cells was collected and transferred to an ELISA plate, and an absorbance at a wavelength of 405 nm was measured to measure the induction of apoptosis.

ATR protein = experiment: Western blotting, ATR protein, BALL-1 cells; details: 0.5 μM
Experimental: The effects of 3EZ,20Ac-ingenol treatment on expression of ATR were examined. First, BALL-1 cells were cultured in the presence of 3EZ,20Ac-ingenol at a final concentration of 0.5 μM for 12, 24, and 48 hours, and an expression level of ATR protein was analyzed by Western blotting using an anti-ATR antibody (Santa Cruz). Cells cultured in the absence of 3EZ,20Ac-ingenol were used as controls.
Subsequently, siRNA against ATR (“ON-TARGET Plus Human ATR (545) siRNA-SMARTpool,” GE Dharmacon) was introduced into BALL-1 cells at a final concentration of 50 nM and incubated for 48 hours. Subsequently, a cell medium was replaced with a new medium containing 3EZ,20Ac-ingenol at a final concentration of 0.5 μM and culturing was performed for 12, 24, and 48 hours, and an expression level of ATR protein was analyzed by Western blotting using an anti-ATR antibody (Santa Cruz).
Cells into which control siRNA (“ON-TARGET Plus Nontargeting pool,” GE Dharmacon) was introduced and which were then cultured in the absence of 3EZ,20Ac-ingenol were used as controls.

[3] = tested on: phosphorylated p53 (p-p53) protein; experiment: Western blotting, phosphorylated p53, Panc-1 cells; details: 3 μM
Experimental: Specifically, JeKo-1 cells were cultured for 0 (control), 12, 24, and 48 hours in the presence of 0.5 μM of 3EZ,20Ac-ingenol. In addition, Panc-1 cells were cultured for 0 (control), 12, 24, and 48 hours in the presence of 3 μM of 3EZ,20Ac-ingenol.
Subsequently, ATR protein, p53 protein, and phosphorylated p53 (hereinafter also referred to as “p-p53”) protein in the respective cells were respectively detected using an anti-ATR antibody (Cell Signaling Technology), an anti-p53 antibody (Santa Cruz), and an anti-p-p53 antibody (Cell Signaling Technology). Furthermore, as a loading control, actin protein was detected using an anti-actin antibody (Sigma).

GSK-3β = experiment: Western blotting, GSK-3β, JeKo-1 cells; details: 0.5 μM, entire cell, 24 hours
Experimental: Specifically, first, JeKo-1 cells were cultured for 0 (control), 12, 24, and 48 hours in the presence of 0.5 μM of 3EZ,20Ac-ingenol. In addition, Panc-1 cells were cultured for 0 (control), 12, 24, and 48 hours in the presence of 3 μM of 3EZ,20Ac-ingenol.
Subsequently, abundances of GSK-3β and p-GSK-3β in the respective cells were analyzed by Western blotting using an anti-GSK-3β antibody (Cell Signaling Technology) and an anti-p-GSK-3β (Ser^9) antibody (Cell Signaling Technology). Furthermore, as a loading control, actin protein was detected using an anti-actin antibody (Sigma).

SMILES: CCCCC/C=C\C=C\C(=O)O[C@H]1C(C)=C[C@]23C(=O)[C@@H](C=C(COC(C)=O)[C@@H](O)[C@]12O)[C@H]1[C@@H](C[C@H]3C)C1(C)C [3EZ,20Ac-ingenol, 3-O-(2′E,4′Z-decadienoyl)-20-O-acetylingenol]
- abundance of PTEN (PTEN; 3 to 48 hours, entire cell fraction): an increase in abundance of PTEN
- expression level of PTEN (PTEN; cells with siRNA against PTEN introduced, 12 hours, further increased 24 and 48 hours): an increase in expression level of PTEN was observed
- proportion of S-phase cells (BALL-1 cells [1]; after 6 hours): 68%
- proportion of G2/M-phase cells (BALL-1 cells [1]; after 12 hours and 24 hours): about 3%
- proportion of S-phase cells (BALL-1 cells [1]; after 12 hours and 24 hours): 75%
- proportion of G1-phase cells (BALL-1 cells [1]; after 24 hours): about 19%
- reduction of cell proliferation inhibition by knockdown of ATR (BALL-1 cells [2]): about 20%
- amount of fragmented DNA (apoptosis) (TKG0377 cells): almost no fragmented DNA was detected
- expression of ATR (ATR protein; cells with siRNA against ATR introduced, 12, 24, 48 hours): an increase in ATR expression was not recognized
- expression of ATR (ATR protein; from 12 hours until 48 hours): the expression of ATR increased
- phosphorylation of p53 ([3]; 12 hours after treatment, entire cells): phosphorylation of p53 was observed
- amount of phosphorylated p53 protein ([3]; nuclear fraction and cytoplasm fraction): the amount of phosphorylated p53 protein increased
- GSK-3β (an active type) (GSK-3β): an increase in GSK-3β was observed
